Experiments:
[1] = system: EP4; test: PGE2 binding to EP4 in membranes of MDCK cells expressing PGT; assay type: cell-based, human; settings: 5 μM, 10 minutes at 37° C.
Protocol: EP4 expression in MDCK cells that constitutively express PGT was tested by determining PGE2 binding to the cells. Wild type MDCK cells and MDCK cells stably expressing PGT were transiently transfected with human cDNA of EP4 (UMR cNDA Resource Center, www.cdna.org). About 30 hours after transfection, the cells were incubated in Waymouth buffer containing 0 and 20 nM of unlabeled PGE2, and either 4% vehicle (DMSO) or 5 μM T26A, for 10 minutes at 37° C. The cells were then washed with PBS buffer and lysed the cells with lysing buffer containing 10 mM TrisHCl, pH, 7.5, 5 mM EDTA, 100 nM okadaic acid, and 20 μM indomethacin. The cells were then harvested and homogenized using a Potter-Elvehiem homogenizer in an ice cold solution containing 10 mM Tris-HCl, pH. 7.4, 1 mM EDTA, 0, 1 mM phenylmethylsulfonyl fluoride, 20 μM indomethacin, then centrifuged the homogenate at 800 g for 5 minutes. The supernatant was transferred to another tube and centrifuged at 19000 rpm for 45 minutes. The supernatant was then discarded and the pellets washed with buffer A containing 20 mM HEPES-NaOH, pH. […] EP4 bound to ^3H-PGE2 were quantified as described by Negishi et al., 1987. Nonspecific binding was determined by using 1000-fold excess of unlabeled PGE2 in the incubation mixture. The specific binding was calculated by subtracting the nonspecific bind value from the total binding value (Nishigaki et al., 1996).

[2] = Systemic BP after IV injection in anesthetized WKY and SHR rats; assay type: in vivo
Protocol: The effect of T26 IV injections on systemic BP in anesthetized rats of a control strain (WKY) and the Spontaneously Hypertensive Rat (SHR) strain was evaluated.

In the case of [N-]=[N+]=NCCOCCOCCNC(=O)c1ccc(Nc2nc(NCCOCCOCCNC(=O)c3ccccc3)nc(Nc3ccc(O)cc3)n2)cc1 [T26A], the “effect on PGT-induced increase of PGE2 binding to EP4” value [1] is reported as “abrogates this effect” and the systemic blood pressure [2] is reported as “reduced the blood pressure of both rats”.

Reference: patent US9144573B2, “Prostaglandin transporter inhibitors” (Albert Einstein College of Medicine of Yeshiva University, priority 2006, dated 2015)
